ChEMBL document CHEMBL6103575, “Design, synthesis and evaluation of (E)-1-(4-(2-(1H-pyrazol-5-yl)vinyl)phenyl) derivatives as next generation selective RET inhibitors overcoming RET solvent front mutations (G810C/R)” (Eur J Med Chem, 2025)

Key:
[1] = Induction of apoptosis in mouse BaF3 cells harboring CCDC6-RET assessed as early apoptotic cells at 30 nM incubated for 48 hrs by Annexin V-PE staining based flow cytometry analysis (Rvb =6.21%); type: functional
[2] = target: Platelet-derived growth factor receptor alpha (Homo sapiens, UniProt P16234); assay: Inhibition of PDGFRalpha (unknown origin) at 1 uM relative to control
[3] = Induction of apoptosis in mouse BaF3 cells harboring CCDC6-RET G810C mutant assessed as necrotic cells at 300 nM incubated for 48 hrs by Annexin V-PE staining based flow cytometry analysis (Rvb =0.48%); type: functional
[4] = Induction of apoptosis in mouse BaF3 cells harboring CCDC6-RET assessed as early apoptotic cells at 300 nM incubated for 48 hrs by Annexin V-PE staining based flow cytometry analysis (Rvb =6.21%); type: functional
[5] = Induction of apoptosis in mouse BaF3 cells harboring CCDC6-RET G810R mutant assessed as late apoptotic cells at 100 nM incubated for 48 hrs by Annexin V-PE staining based flow cytometry analysis (Rvb =3.21%); type: functional
[6] = target: Proto-oncogene tyrosine-protein kinase receptor Ret (Homo sapiens, UniProt P07949); assay: Inhibition of RET (unknown origin) at 1 uM relative to control
[7] = Induction of cell cycle arrest in mouse BaF3 cells harboring CCDC6-RET G810R mutant assessed as accumulation of cells at S phase at 10 nM incubated for 24 hrs by propidium iodide staining based analysis (reference value: 13.66%); type: functional
[8] = Induction of apoptosis in mouse BaF3 cells harboring CCDC6-RET G810R mutant assessed as early apoptotic cells at 100 nM incubated for 48 hrs by Annexin V-PE staining based flow cytometry analysis (Rvb =10 %); type: functional
[9] = Induction of cell cycle arrest in mouse BaF3 cells harboring CCDC6-RET assessed as accumulation of cells at G2/M phase at 100 nM incubated for 24 hrs by propidium iodide staining based analysis (reference value: 34.11%); type: functional
[10] = Induction of cell cycle arrest in mouse BaF3 cells harboring CCDC6-RET G810C mutant assessed as accumulation of cells at G2/M phase at 30 nM incubated for 24 hrs by propidium iodide staining based analysis (reference value: 34.75%); type: functional
[11] = Induction of cell cycle arrest in mouse BaF3 cells harboring CCDC6-RET G810C mutant assessed as accumulation of cells at G0/G1 phase at 30 nM incubated for 24 hrs by propidium iodide staining based analysis (reference value: 52.11%); type: functional
[12] = Induction of cell cycle arrest in mouse BaF3 cells harboring CCDC6-RET G810C mutant assessed as accumulation of cells at S phase at 100 nM incubated for 24 hrs by propidium iodide staining based analysis (reference value: 12.47%); type: functional
[13] = tested on: Proto-oncogene tyrosine-protein kinase receptor Ret (Homo sapiens), P07949 [G810C]; assay: Inhibition of RET (unknown origin) G810C mutant at 1 uM relative to control
[14] = Induction of cell cycle arrest in mouse BaF3 cells harboring CCDC6-RET G810R mutant assessed as accumulation of cells at G2/M phase at 10 nM incubated for 24 hrs by propidium iodide staining based analysis (reference value: 33.61%); type: functional
[15] = Induction of cell cycle arrest in mouse BaF3 cells harboring CCDC6-RET assessed as accumulation of cells at G0/G1 phase at 300 nM incubated for 24 hrs by propidium iodide staining based analysis (reference value: 52.51%); type: functional
[16] = Induction of apoptosis in mouse BaF3 cells harboring CCDC6-RET assessed as viable cells at 10 nM incubated for 48 hrs by Annexin V-PE staining based flow cytometry analysis (Rvb =91.16%); type: functional; conditions: read-out: Activity
[17] = Induction of cell cycle arrest in mouse BaF3 cells harboring CCDC6-RET G810R mutant assessed as accumulation of cells at G0/G1 phase at 30 nM incubated for 24 hrs by propidium iodide staining based analysis (reference value: 52.63%); type: functional
[18] = Induction of apoptosis in mouse BaF3 cells harboring CCDC6-RET G810C mutant assessed as late apoptotic cells at 10 nM incubated for 48 hrs by Annexin V-PE staining based flow cytometry analysis (Rvb =4.30%); type: functional
[19] = Induction of apoptosis in mouse BaF3 cells harboring CCDC6-RET assessed as necrotic cells at 10 nM incubated for 48 hrs by Annexin V-PE staining based flow cytometry analysis (Rvb =0.19%); type: functional
[20] = Induction of apoptosis in mouse BaF3 cells harboring CCDC6-RET G810C mutant assessed as viable cells at 10 nM incubated for 48 hrs by Annexin V-PE staining based flow cytometry analysis (Rvb =86.47%); type: functional; conditions: read-out: Activity
[21] = Induction of cell cycle arrest in mouse BaF3 cells harboring CCDC6-RET assessed as accumulation of cells at S phase at 30 nM incubated for 24 hrs by propidium iodide staining based analysis (reference value: 13.27%); type: functional
[22] = target: Proto-oncogene tyrosine-protein kinase receptor Ret (Homo sapiens, UniProt P07949, V804M); assay: Inhibition of RET (unknown origin) V804M mutant
[23] = Induction of cell cycle arrest in mouse BaF3 cells harboring CCDC6-RET G810R mutant assessed as accumulation of cells at G0/G1 phase at 100 nM incubated for 24 hrs by propidium iodide staining based analysis (reference value: 52.63%); type: functional
[24] = Induction of cell cycle arrest in mouse BaF3 cells harboring CCDC6-RET G810R mutant assessed as accumulation of cells at G2/M phase at 300 nM incubated for 24 hrs by propidium iodide staining based analysis (reference value: 33.61%); type: functional
[25] = Induction of cell cycle arrest in mouse BaF3 cells harboring CCDC6-RET G810R mutant assessed as accumulation of cells at G2/M phase at 100 nM incubated for 24 hrs by propidium iodide staining based analysis (reference value: 33.61%); type: functional
[26] = Induction of cell cycle arrest in mouse BaF3 cells harboring CCDC6-RET assessed as accumulation of cells at G2/M phase at 300 nM incubated for 24 hrs by propidium iodide staining based analysis (reference value: 34.11%); type: functional
[27] = Induction of cell cycle arrest in mouse BaF3 cells harboring CCDC6-RET G810R mutant assessed as accumulation of cells at G0/G1 phase at 300 nM incubated for 24 hrs by propidium iodide staining based analysis (reference value: 52.63%); type: functional
[28] = Induction of cell cycle arrest in mouse BaF3 cells harboring CCDC6-RET G810C mutant assessed as accumulation of cells at G0/G1 phase at 100 nM incubated for 24 hrs by propidium iodide staining based analysis (reference value: 52.11%); type: functional
[29] = Induction of cell cycle arrest in mouse BaF3 cells harboring CCDC6-RET G810R mutant assessed as accumulation of cells at G0/G1 phase at 10 nM incubated for 24 hrs by propidium iodide staining based analysis (reference value: 52.63%); type: functional

Proto-oncogene tyrosine-protein kinase receptor Ret (Homo sapiens, UniProt P07949), sequence (P07949 whole entry): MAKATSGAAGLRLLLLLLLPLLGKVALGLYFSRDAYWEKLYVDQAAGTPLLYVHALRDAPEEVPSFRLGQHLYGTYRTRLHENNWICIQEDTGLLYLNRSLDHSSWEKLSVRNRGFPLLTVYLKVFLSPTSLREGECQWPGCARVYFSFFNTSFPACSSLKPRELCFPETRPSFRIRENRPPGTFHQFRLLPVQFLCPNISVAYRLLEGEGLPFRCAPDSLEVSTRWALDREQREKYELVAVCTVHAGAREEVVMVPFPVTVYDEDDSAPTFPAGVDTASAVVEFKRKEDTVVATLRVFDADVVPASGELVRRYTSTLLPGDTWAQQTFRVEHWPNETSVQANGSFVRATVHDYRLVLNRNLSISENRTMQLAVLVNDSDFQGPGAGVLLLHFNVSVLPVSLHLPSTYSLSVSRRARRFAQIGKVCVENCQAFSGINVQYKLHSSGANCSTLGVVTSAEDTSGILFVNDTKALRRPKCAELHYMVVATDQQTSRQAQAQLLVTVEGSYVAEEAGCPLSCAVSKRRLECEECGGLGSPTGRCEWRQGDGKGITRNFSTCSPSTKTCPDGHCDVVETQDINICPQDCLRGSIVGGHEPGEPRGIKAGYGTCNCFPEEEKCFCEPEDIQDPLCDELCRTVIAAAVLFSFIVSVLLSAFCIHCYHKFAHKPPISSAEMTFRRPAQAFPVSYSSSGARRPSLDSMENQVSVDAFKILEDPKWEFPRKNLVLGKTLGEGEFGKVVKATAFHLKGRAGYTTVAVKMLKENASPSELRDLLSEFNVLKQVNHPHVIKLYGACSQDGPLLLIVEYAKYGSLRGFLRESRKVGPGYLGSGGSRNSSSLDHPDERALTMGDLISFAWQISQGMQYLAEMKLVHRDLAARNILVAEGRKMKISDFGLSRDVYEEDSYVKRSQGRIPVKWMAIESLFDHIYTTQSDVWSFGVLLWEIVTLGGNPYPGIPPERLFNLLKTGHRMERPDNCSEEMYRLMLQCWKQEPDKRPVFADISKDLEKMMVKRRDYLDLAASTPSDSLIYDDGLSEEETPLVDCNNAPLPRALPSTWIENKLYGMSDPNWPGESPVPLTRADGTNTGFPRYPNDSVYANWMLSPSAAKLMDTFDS
Proto-oncogene tyrosine-protein kinase receptor Ret (Homo sapiens, UniProt P07949, V804M), sequence (P07949 29-1114 V804M limits assumed): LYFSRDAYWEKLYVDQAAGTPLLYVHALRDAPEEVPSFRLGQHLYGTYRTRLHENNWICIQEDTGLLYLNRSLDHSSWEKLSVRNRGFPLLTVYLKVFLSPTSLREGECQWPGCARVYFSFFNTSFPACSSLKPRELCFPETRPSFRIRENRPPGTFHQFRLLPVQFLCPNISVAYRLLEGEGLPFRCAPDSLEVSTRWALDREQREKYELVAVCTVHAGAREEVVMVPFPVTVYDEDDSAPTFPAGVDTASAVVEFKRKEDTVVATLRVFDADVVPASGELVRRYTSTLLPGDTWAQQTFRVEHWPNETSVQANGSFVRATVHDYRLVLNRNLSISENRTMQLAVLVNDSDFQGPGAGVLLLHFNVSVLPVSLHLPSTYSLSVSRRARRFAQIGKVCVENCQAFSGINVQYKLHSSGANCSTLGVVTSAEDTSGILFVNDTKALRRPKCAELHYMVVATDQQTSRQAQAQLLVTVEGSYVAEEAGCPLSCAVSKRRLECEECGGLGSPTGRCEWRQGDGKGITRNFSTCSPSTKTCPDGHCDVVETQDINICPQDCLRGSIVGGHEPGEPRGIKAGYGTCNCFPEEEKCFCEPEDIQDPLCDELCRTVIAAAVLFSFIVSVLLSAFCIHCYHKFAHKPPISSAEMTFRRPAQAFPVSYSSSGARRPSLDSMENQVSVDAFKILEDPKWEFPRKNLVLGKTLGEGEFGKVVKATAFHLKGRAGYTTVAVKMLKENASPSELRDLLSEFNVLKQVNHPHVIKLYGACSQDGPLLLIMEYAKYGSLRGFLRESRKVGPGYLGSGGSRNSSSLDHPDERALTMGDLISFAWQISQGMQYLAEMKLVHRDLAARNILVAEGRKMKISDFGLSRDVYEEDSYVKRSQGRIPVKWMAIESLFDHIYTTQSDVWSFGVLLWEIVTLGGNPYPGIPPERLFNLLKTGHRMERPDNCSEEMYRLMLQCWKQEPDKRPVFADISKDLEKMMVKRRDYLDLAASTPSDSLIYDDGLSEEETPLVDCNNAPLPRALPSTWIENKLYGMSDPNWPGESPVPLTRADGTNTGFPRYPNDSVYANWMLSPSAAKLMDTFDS
Platelet-derived growth factor receptor alpha, sequence (P16234 whole entry): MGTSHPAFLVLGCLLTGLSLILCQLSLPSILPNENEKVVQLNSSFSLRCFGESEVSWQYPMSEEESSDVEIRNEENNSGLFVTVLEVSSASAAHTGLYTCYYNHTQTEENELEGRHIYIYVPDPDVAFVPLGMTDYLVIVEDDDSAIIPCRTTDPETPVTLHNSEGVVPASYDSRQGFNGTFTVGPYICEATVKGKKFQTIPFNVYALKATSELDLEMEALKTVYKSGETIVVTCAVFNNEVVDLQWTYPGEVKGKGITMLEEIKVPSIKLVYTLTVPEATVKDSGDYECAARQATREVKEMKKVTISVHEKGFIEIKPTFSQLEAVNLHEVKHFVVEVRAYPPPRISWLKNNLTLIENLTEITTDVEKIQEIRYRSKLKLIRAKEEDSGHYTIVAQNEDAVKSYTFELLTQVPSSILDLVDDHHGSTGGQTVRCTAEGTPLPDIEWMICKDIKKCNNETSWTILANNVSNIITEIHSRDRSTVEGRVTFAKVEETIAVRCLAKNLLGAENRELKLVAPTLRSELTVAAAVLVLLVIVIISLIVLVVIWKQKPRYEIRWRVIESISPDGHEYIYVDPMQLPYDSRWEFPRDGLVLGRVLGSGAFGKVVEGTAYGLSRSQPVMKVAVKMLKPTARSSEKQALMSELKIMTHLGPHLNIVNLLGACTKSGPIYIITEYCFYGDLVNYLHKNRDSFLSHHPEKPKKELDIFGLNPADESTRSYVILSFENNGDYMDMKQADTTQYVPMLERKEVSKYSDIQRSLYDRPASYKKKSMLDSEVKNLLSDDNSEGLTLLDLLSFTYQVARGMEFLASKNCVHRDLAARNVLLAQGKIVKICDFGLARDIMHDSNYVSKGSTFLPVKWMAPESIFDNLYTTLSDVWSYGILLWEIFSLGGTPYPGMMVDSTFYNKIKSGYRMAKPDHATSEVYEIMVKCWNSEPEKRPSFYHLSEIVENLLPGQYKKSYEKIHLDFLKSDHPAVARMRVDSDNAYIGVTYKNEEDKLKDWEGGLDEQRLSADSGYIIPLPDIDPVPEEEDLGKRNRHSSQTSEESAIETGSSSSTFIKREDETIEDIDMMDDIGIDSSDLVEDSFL
Proto-oncogene tyrosine-protein kinase receptor Ret (Homo sapiens), P07949 [G810C], sequence (P07949 whole entry G810C): as the sequence (P07949 whole entry) above, with G810C counted along it

Work on `COc1cncc(-c2cn[nH]c2/C=C/c2ccc(NC(=O)Nc3cc(C(C)(C)C(F)(F)F)on3)c(Cl)c2)c1` yielded an Activity [1] of 22.34%, an inhibition [2] of 101% and an Activity [3] of 0.03%. For the same compound, the Activity [4] was 54.65%, the Activity [5] was 10.19% and the inhibition [6] was 98.3%. It also gave an Activity [7] of 13.31%, an Activity [8] of 2.7% and an Activity [9] of 23.17%. The Activity [10] was 30.79%, the Activity [11] was 57.08% and the Activity [12] was 6.84%. For the same compound, the inhibition [13] was 102%, the Activity [14] was 32.33% and the Activity [15] was 84.1%. The viability at 0.01 µM [16] was 86.4%, the Activity [17] was 53.02% and the Activity [18] was 3.24%. It also gave an Activity [19] of 0.14%, a viability at 0.01 µM [20] of 87.1% and an Activity [21] of 13.33%. For the same compound, the IC50 [22] was 162 nM, the Activity [23] was 57.96% and the Activity [24] was 16.09%. It also gave an Activity [25] of 28.68%, an Activity [26] of 12.51% and an Activity [27] of 78.85%. The Activity [28] was 66.6% and the Activity [29] was 54.03%.
